From EP0671924B1, “DIGITALIS-LIKE COMPOUNDS” (YISSUM RESEARCH DEVELOPMENT COMPANY OF THE HEBREW …, priority 1992, dated 1994)

Test system: digoxin antibody
Format: binding
Experimental: Measurement of digoxin-like immunoreactivity: Radioimmunoassay was performed with digoxin RIA kit obtained from Amersham International (Amersham, Buckinghamshire, England). Assay conditions were as recommended by the manufacturer.
Digoxin radioimmunoassay was performed using commercially available kit. The concentration of the partially purified lens DLC was determined from its ability to inhibit [^3H]-ouabain binding assuming identical affinity to the ouabain receptor as ouabain and MW of 372.

C[C@]12CC[C@H](O)C[C@H]1CC[C@@H]1[C@@H]2CC[C@]2(C)[C@@H](c3ccc(=O)oc3)CC[C@]12O [Bufalin] gave a Cross reactivity of 0.045% and a Digoxin-like immunoreactive material of 4.53 ng/mL.

C[C@H]1O[C@@H](O[C@H]2[C@@H](O)C[C@H](O[C@H]3[C@@H](O)C[C@H](O[C@H]4CC[C@@]5(C)[C@H](CC[C@@H]6[C@@H]5C[C@@H](O)[C@]5(C)[C@@H](C7=CC(=O)OC7)CC[C@]65O)C4)O[C@@H]3C)O[C@@H]2C)C[C@H](O)[C@@H]1O [Digoxin] was tested, and the Cross reactivity was 100% and the Digoxin-like immunoreactive material was 10,000 ng/ml.

In the case of C[C@@H]1O[C@@H](O[C@H]2C[C@@H](O)[C@]3(CO)[C@H]4[C@H](O)C[C@]5(C)[C@@H](C6=CC(=O)OC6)CC[C@]5(O)[C@@H]4CC[C@]3(O)C2)[C@H](O)[C@H](O)[C@H]1O [Ouabain], the Cross reactivity is reported as 0.012% and the Digoxin-like immunoreactive material is reported as 1.21 ng/mL.
